This is an account of results in patent US20230382869A1, “Phenyl-3,4-dihydroisoquinolin-2(1h)-yl-ethan-1-one derivatives as dopamine d1receptor positive allosteric modulators” (Eli Lilly and Company, priority 2020, published 2023).

One series has as its target human D1 receptor (Homo sapiens (Human), UniProt P21728). The series is described as follows: Human D1 Receptor PAM Assay (cAMP HTRF, potentiator mode). Type of series: cell-based. From the text: The PAM activity of the compounds of the present invention may be measured essentially as described in Svensson et al., An Allosteric Potentiator of the Dopamine D1 Receptor Increases Locomotor Activity in Human D1 Knock-in Mices without Casusing Stereotypy or Tachyphylaxis. J. Pharmacol. Exp. Ther. (2017) 360:117-128.
More specifically, HEK293 cells that stably express the human D1 receptor (Accession number NM_000794) are generated by gene transduction using the pBABE-bleo retroviral vector and selected with Zeocin™ (InvivoGen). At approximately 80% confluency, the cells are harvested using TrypLE™ Express (Gibco), suspended in FBS plus 8% DMSO, and stored in liquid nitrogen. On the day of the assay, cells are thawed and resuspended in STIM buffer (Hanks Balanced Salt Solution supplemented with 0.1% BSA, 20 mM HEPES, 500 μM IBMX, and 100 μM ascorbic acid).
Test compound is serially diluted (1:2) with DMSO into assay plates (ProxiPlate-384 Plus, PerkinElmer) using acoustic dispensing (Labcyte) to provide 20 concentrations for full response curves. Test compound (80 nL) is added to 5 μL STIM buffer containing 2000 cells, and 5 μL of a 2×concentration dopamine solution in STIM buffer that will generate an EC20 level response (24 nM in stock solution, or 12 nM final) and a final DMSO concentration in the well of 0.8%. Plates are incubated at room temperature for a total reaction time of 60 min.
cAMP production is quantified using HTRF® detection (Cisbio) according to the manufacturer's instructions. Generally, lysis buffer containing anti-cAMP cryptate (5 μL) and D2-conjugate (from HTRF® kit)(5 μL) is added to the wells, plates are incubated for an additional 60-90 min, and the time-resolved fluorescence is detected using an EnVision™ plate reader (PerkinElmer). Fluorescence data is converted to cAMP concentrations using a cAMP standard curve and analyzing using a 4-parameter non-linear logistic equation (Genedata Screener, version 13.0.5-standard). For potentiator mode concentration-response curves, results are expressed as percent of the window between a response at EC20 concentration of dopamine alone (normalized to 0%) and the maximum response to dopamine (defined by response to 5 μM dopamine, final concentration, normalized as 100%). Absolute EC50 values are calculated based on the maximum and minimum responses of the control agonist (dopamine). The % Potentiation (% Top) is determined from the fitted top of the concentration response curve.
A general note: In TR-FRET formats the signal depends on donor and acceptor labels being close together.

The next series concerns the target CYP3A4 (Homo sapiens (Human), UniProt P08684). Briefly: Recombinant CYP phenotyping assay (fmCYP3A4_RCP). Particulars: not examined in RCP assay; worst case of 100% metabolized by CYP3A4 assumed. Type of series: in vitro ADME. The protocol:
The relative fraction of a compound's metabolism contributed by a given CYP, as for example CYP3A4, of the total P450 metabolism of the compound may be determined as follows:
A panel of 9 human recombinant CYPs (rCYPs) provided as Supersomes (BD Gentest, Woburn, MA), including rCYPs 1A2, 2B6, 2C8, 2C9, 2C19, 2D6, 2J2, 3A4, and 3A5, are evaluated for compound metabolism (see generally Cannady E A, et al. (2015) Evacetrapib: in vitro and clinical disposition, metabolism, excretion, and assessment of drug interaction potential with strong CYP3A and CYP2C8 inhibitors. Pharmacol Res Perspect 3:e00179). […]
in which kdep is the substrate depletion rate constant (min^−1), pmol rCYP is the lot-specific amount of rCYP in the incubation, and relative activity factor (RAF) is a relative activity factor (pmol/mg) appropriate for the rCYPs/HLMs pair. The rate constant is determined in-house by experiment, the slope determined using linear regression from the log transformed % remaining on the y-axis vs time on the x-axis (min^−1). pmol rCYP and RAF are vender supplied constenats for the supersome.
The fraction of CYP3A4-mediated metabolism (fmCYP3A4_RCP) is determined by dividing the HLM-scaled CLint of CYP3A4 by the sum of the HLM-scaled CL1nt for each P450 subtype assayed (Cannady et al., 2015).

The nature of series [1]: Fraction of drug unbound in human liver microsomes (fumic). It counts as in vitro ADME. From the text: fumic is the fraction of drug unbound in human liver microsomes
In general terms: Liver microsomes are a subcellular fraction often used to study metabolism.

Series [2] is described as follows: Fraction escaping first-pass gut metabolism (FG). The arrangement: species or system human. The following applies: calculated. From the text: The estimation of fraction metabolized in the gut may be determined using the following equation found in Yang J, et al. (2007) Prediction of intestinal first-pass drug metabolism. Curr Drug Metab 8:676-684:
FG=Qgut/(Qgut+fugut×Clint CYP3A,gut)
Qgut=Qvilli×Clperm/(Qvilli+Clperm)
Clperm═Papp×Intestinal surface area
Clint,CYP3A,gut=CLint,CYP3A,liver/fumic×microsomal protein in gut (mg)×0.4 (in house calculation) Where Qgut is a hybrid flow term dependent upon the villous blood flow and permeability of the compound fugut is the fraction of drug unbound in the enterocyte
Qvilli is villous blood flow
Clperm is the clearance term defining permeability through the enterocyte
Papp is the passive permeability measured in MDCKII cell line in house fumic is the fraction of drug unbound in human liver microsomes
Human intestine parameters are from Yang et al., 2007, and Gertz M, et al. (2010) Prediction of human intestinal first-pass metabolism of 25 CYP3A substrates from in vitro clearance and permeability data. Drug Metab Dispos 38:1147-1158.

As usually defined, the EC50 is the concentration at which the effect is half-maximal.

Sequence of human D1 receptor (P21728 whole entry): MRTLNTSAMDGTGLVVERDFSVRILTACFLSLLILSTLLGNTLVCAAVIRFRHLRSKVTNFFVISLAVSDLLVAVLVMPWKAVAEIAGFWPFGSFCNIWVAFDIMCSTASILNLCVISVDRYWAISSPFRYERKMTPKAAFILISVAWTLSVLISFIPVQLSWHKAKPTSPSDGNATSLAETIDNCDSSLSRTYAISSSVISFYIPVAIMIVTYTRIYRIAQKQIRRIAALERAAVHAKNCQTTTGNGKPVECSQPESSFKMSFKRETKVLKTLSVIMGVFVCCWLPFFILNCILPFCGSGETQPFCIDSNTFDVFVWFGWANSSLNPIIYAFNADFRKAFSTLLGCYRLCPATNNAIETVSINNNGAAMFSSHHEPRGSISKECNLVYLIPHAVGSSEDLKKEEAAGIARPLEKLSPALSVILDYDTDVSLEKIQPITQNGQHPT

`C[C@H]1c2ccc(F)c(CCC(C)(C)O)c2C[C@H](CO)N1C(=O)Cc1c(F)cccc1Cl` [Example 7, 2-(2-chloro-6-fluoro-phenyl)-1-[(1S,3R)-6-fluoro-3-(hydroxymethyl)-5-(3-hydroxy-3-methyl-butyl)-1-methyl-3,4-dihydro-1H-isoquinolin-2-yl]ethanone]: on human D1 receptor (HEK293 cells expressing human D1, with EC20 dopamine (12 nM final), cAMP, read-out: Abs EC50), the EC50 came to 10.2 ± 1.4 nM. Also, the “% Top (% Potentiation)” value at human D1 receptor (fitted top, 0% = EC20 dopamine alone, 100% = 5 μM dopamine) came out at 90.9%. For the same compound, on CYP3A4, the fm3A4_RCP came to 1. Also, in series [1], the fumic came out at 0.392. The FG in series [2] was 0.78.
